Common to all, as to experiment: NCI-60 cell line screen, 48 h
Assay [1] has as its system HCT-116.
The subject of assay [2] is UACC-62.
Assay [3] relates to IGROV-1.
The test system of assay [4] is LXFL 529.
Assay [5] deals with HOP-62.
Assay [6] concerns COLO 205.
For assay [7], the system named is SF-539.
For assay [8], the system named is NCI-H522.
In assay [9] the test system is OVCAR-5.
Assay [10] concerns HT-29.
Assay [11] deals with NCI-H460.
The subject of assay [12] is NCI-H226.
The subject of assay [13] is SNB-75.
In assay [14] the test system is TK-10.
The subject of assay [15] is MDA-MB-231.
Assay [16] has as its system NCI/ADR-RES.
In assay [17] the test system is MDA-N.
Assay [18] concerns SR.
Assay [19] relates to MDA-MB-435.
The test system of assay [20] is HCT-15.

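Grown in 96-well plates, cells were treated for 48 hours with each compound at five concentrations. Insufficient inhibition: endpoint recorded as highest concentration tested. Abbreviation: GI50, concentration required for 50% inhibition of growth.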 Activity calls are given as the source filed them. Cut-off read from the data, not from the text of the source: active = GI50 up to about 1.1 µM and inactive = higher.

Regarding `COc1ccc2nc(NC(=O)C(=O)CC(=O)c3ccc([N+](=O)[O-])cc3)sc2c1`, the GI50 in assay [1], in assay [2], in [3], in assay [4], in assay [5] and in assay [6] was > 100 µM (inactive) throughout. The GI50 in assay [7], in assay [8], in assay [9], in assay [10], in [11] and in assay [12] was > 100 µM (inactive) throughout. In assay [13], the GI50 was > 100 µM (inactive).
Consider `NC(Cc1cc(Br)c(O)c(Br)c1)C(=O)O` (stereo not given), for which the GI50 in assay [1], in [14], in [2], in assay [15], in assay [3] and in [5] was > 100 µM (inactive) each time. Further, the GI50 in [16], in assay [17], in assay [18], in [19], in assay [6] and in [7] was > 100 µM (inactive) each time. Moreover, the GI50 in [8] is > 100 µM (inactive); in assay [20], more than 100 µM; in assay [9], > 100 µM (inactive); in [10], > 100 µM (inactive); in assay [11], > 100 µM (inactive); in assay [12], > 100 µM (inactive). Further, the GI50 in assay [13] was > 100 µM (inactive).
Take `O=c1oc2ccccc2[n+]([O-])c1-c1ccccc1`: the GI50 in [1], in assay [14], in [2], in assay [3], in assay [4] and in assay [5] was > 100 µM (inactive) each time. The GI50 in assay [6] is > 100 µM (inactive); in assay [7], > 100 µM (inactive); in assay [8], 36.6 µM (inactive); in assay [20], more than 100 µM; in assay [9], > 100 µM (inactive); in assay [10], > 100 µM (inactive). Further, the GI50 in [11] is > 100 µM (inactive); in assay [12] it was > 100 µM (inactive); in [13], 49.7 µM (inactive).
On to `O=c1[nH]c2[nH]c(-c3ccc(Br)cc3)cc2c2ccccc12`, for which the GI50 in [1] was 43.2 µM (inactive); in [14] it was 52 µM (inactive); in [2], > 100 µM (inactive); in [15] it was 15 µM (inactive); in assay [3], > 100 µM (inactive); in assay [5], 22.1 µM (inactive). Further, the GI50 in assay [16] was 50.1 µM (inactive); in [17] it was > 100 µM (inactive); in assay [18] it was 11.3 µM (inactive); in assay [19], > 100 µM (inactive); in assay [6], 34.7 µM (inactive); in [7], > 100 µM (inactive). Moreover, the GI50 in [8] was > 100 µM (inactive); in assay [20] it was more than 100 µM; in assay [9], > 100 µM (inactive); in assay [10] it was 35.6 µM (inactive); in assay [11], > 100 µM (inactive); in assay [12], 43.5 µM (inactive). Also, the GI50 in assay [13] was 19.4 µM (inactive).
As to `CCOC(=O)C(C(O)c1ccc([N+](=O)[O-])cc1)P(=O)(OCC)OCC` (stereo not given), the GI50 in assay [1] is > 100 µM (inactive); in assay [14] it was > 100 µM (inactive); in [2], 52.1 µM (inactive); in assay [3], > 100 µM (inactive); in [4], > 100 µM (inactive); in [5], > 100 µM (inactive). In addition, the GI50 in [7] is > 100 µM (inactive); in [8] it was 29.2 µM (inactive); in assay [20] it was more than 100 µM; in assay [9], > 100 µM (inactive); in assay [10], > 100 µM (inactive); in [11] it was > 100 µM (inactive). In addition, the GI50 in [12] is > 100 µM (inactive); in assay [13], 35.4 µM (inactive).
Take `O=c1c2ncn(COCCCl)c2n(-c2ccccc2)c(=S)n1-c1ccccc1`: the GI50 in assay [1], in [14], in assay [2], in assay [15], in assay [3] and in assay [5] was > 100 µM (inactive) throughout. The GI50 in assay [16], in assay [17], in [18], in [19], in assay [6] and in assay [7] was > 100 µM (inactive) in each case. Also, the GI50 was > 100 µM (inactive) in assay [8]; more than 100 µM in assay [20]; > 100 µM (inactive) in assay [9]; > 100 µM (inactive) in assay [10]; > 100 µM (inactive) in assay [11]; > 100 µM (inactive) in assay [12]. Besides, in [13], the GI50 was 4.7 µM (inactive).
Consider `CCOC(=O)/C=C/CC(C)(C)CCOC(C)=O`, for which the GI50 in [1], in [14], in assay [2], in [15], in assay [3] and in assay [5] was > 10 µM (inactive) throughout. Moreover, the GI50 in [16], in [17], in assay [18], in [19], in assay [6] and in assay [7] was > 10 µM (inactive) each time. Further, the GI50 in assay [8] was > 10 µM (inactive); in [20], more than 10 µM; in assay [9] it was > 10 µM (inactive); in assay [10] it was > 10 µM (inactive); in assay [11] it was > 10 µM (inactive); in assay [12], > 10 µM (inactive). Further, the GI50 in assay [13] was > 10 µM (inactive).
Turning to `CCCN(CCC)c1c([N+](=O)[O-])cc(C(=O)N(CCO)CCO)cc1[N+](=O)[O-]`, the GI50 in assay [1], in [14], in assay [3], in assay [4], in assay [6] and in assay [7] was > 100 µM (inactive) each time. Also, the GI50 is > 100 µM (inactive) in assay [8]; more than 100 µM in assay [20]; > 100 µM (inactive) in [9]; > 100 µM (inactive) in assay [10]; > 100 µM (inactive) in assay [11]; > 100 µM (inactive) in assay [12]. Moreover, the GI50 in assay [13] is > 100 µM (inactive).
Take `CCOC(=O)c1ccc(/N=C/c2ccc(N(CCC#N)S(=O)(=O)c3ccccc3)cc2C)cc1`: the GI50 in assay [1] is 36.9 µM (inactive); in assay [14], 49.3 µM (inactive); in [2], 19.4 µM (inactive); in assay [3], > 100 µM (inactive); in [4] it was 6.01 µM (inactive); in assay [5] it was 31 µM (inactive). For the same compound, the GI50 in assay [6] was 20.4 µM (inactive); in assay [7], 41.9 µM (inactive); in assay [8], 72.1 µM (inactive); in assay [20], 6.82 µM; in [9], 31.8 µM (inactive); in [10] it was 37.2 µM (inactive). In assay [13], the GI50 was 32.4 µM (inactive).
Turning to `Cc1c2cc[n+](C)cc2c(C)c2c1[nH]c1ccc(O)c(OCC(F)(F)F)c12`, the GI50 in assay [1] is 4.97 µM (inactive); in assay [14], 11.2 µM (inactive); in assay [2] it was 5.66 µM (inactive); in assay [3] it was 5.86 µM (inactive); in assay [4], 0.807 µM (active); in assay [5], 1.12 µM (inactive). The GI50 is 1.77 µM (inactive) in [6]; 2.04 µM (inactive) in assay [7]; 1.01 µM (active) in assay [8]; 7.11 µM (inactive) in assay [9]; 9.82 µM (inactive) in assay [10]; 1.51 µM (inactive) in assay [11]. Besides, the results for the GI50 in [12] and in assay [13] were 0.432 µM (active) and 0.188 µM (active), respectively.
As for `NNC(=O)CC(=O)Nc1ccccc1F`, the GI50 in assay [1], in assay [2], in [3], in assay [4], in [5] and in assay [6] was > 100 µM (inactive) throughout. The GI50 in [7] was > 100 µM (inactive); in assay [8] it was > 100 µM (inactive); in assay [20] it was more than 100 µM; in assay [9] it was > 100 µM (inactive); in [10], > 100 µM (inactive); in [11], > 100 µM (inactive). The GI50 in assay [12] and in assay [13] was > 100 µM (inactive) each time.
Take `COC(=O)/C(=N/NC(N)=O)C(C(=O)C(=O)Nc1ccc(C)cc1)c1nc2ccc(C(=O)c3ccccc3)cc2nc1O` (stereo not given): the GI50 in assay [1] was > 100 µM (inactive); in assay [14], > 100 µM (inactive); in [2], 51.4 µM (inactive); in assay [15] it was > 100 µM (inactive); in [3], 23.7 µM (inactive); in assay [5], > 100 µM (inactive). The GI50 is 39.3 µM (inactive) in assay [16]; 64.1 µM (inactive) in [17]; 1.53 µM (inactive) in [18]; 37 µM (inactive) in assay [19]; > 100 µM (inactive) in assay [6]; 85.1 µM (inactive) in assay [7]. The GI50 in assay [8] was 50.5 µM (inactive); in assay [20], more than 100 µM; in [9], > 100 µM (inactive); in assay [10], 80.9 µM (inactive); in [11], > 100 µM (inactive); in assay [12], 40.9 µM (inactive). Besides, the GI50 in assay [13] was 39.7 µM (inactive).
As for `CC(C)N1CC2CC(CN(C(=O)c3ccc(Cl)cc3)C2)C1`, the GI50 in assay [14], in [2], in assay [3], in assay [4], in assay [5] and in [6] was > 100 µM (inactive) in each case. The GI50 in assay [7] was > 100 µM (inactive); in assay [8], > 100 µM (inactive); in assay [20], more than 100 µM; in assay [9], > 100 µM (inactive); in assay [10], > 100 µM (inactive); in assay [11], > 100 µM (inactive). Further, the GI50 in [12] and in assay [13] was > 100 µM (inactive) throughout.

Source of the values: ChEMBL document CHEMBL1201862, “PubChem BioAssay data set” (2004).
